# Results as given in ChEMBL document CHEMBL5506037, “Synthesis of Heterocyclic Ring-Fused Bisnoralcohol Derivatives as Novel Small-Molecule Antiosteoporosis Agents” (J Med Chem, 2024).
# Experiments:
# BMMC [1] = experiment: Anti-osteoclastogenesis activity in M-CSF/RANKL-induced C57BL/6J mouse BMMC cells assessed as inhibition of osteoclast differentiation at 5 uM incubated for 7 days by TRAP staining based analysis relative to control; type: functional; details: 168 h, time 7 day
# [2] = Cytotoxicity against M-CSF induced C57BL/6J mouse BMMC cells assessed as cell viability at 10 uM incubated for 48 hrs by CCK-8 assay relative to control; type: toxicity, cell-based; details: read-out: Activity
# BMMC [3] = experiment: Anti-osteoclastogenesis activity in M-CSF/RANKL-induced C57BL/6J mouse BMMC cells assessed as inhibition of osteoclast differentiation incubated for 7 days by TRAP staining based analysis; type: functional, cell-based; details: 168 h
# BMMC [4] = experiment: Anti-osteoclastogenesis activity in M-CSF/RANKL-induced C57BL/6J mouse BMMC cells assessed as inhibition of osteoclast differentiation at 10 uM incubated for 7 days by TRAP staining based analysis relative to control; type: functional; details: 168 h, time 7 day
# BMMC [5] = experiment: Anti-osteoclastogenesis activity in M-CSF/RANKL-induced C57BL/6J mouse BMMC cells assessed as inhibition of osteoclast differentiation at 0.1 uM incubated for 7 days by TRAP staining based analysis relative to control; type: functional; details: 168 h, time 7 day
# BMMC [6] = experiment: Anti-osteoclastogenesis activity in M-CSF/RANKL-induced C57BL/6J mouse BMMC cells assessed as inhibition of osteoclast differentiation at 1 uM incubated for 7 days by TRAP staining based analysis relative to control; type: functional; details: 168 h, time 7 day
# [7] = Toxicity in ovariectomized female C57BL/6 mouse assessed as reduction in body weight at 25 ug/kg, sc administered every day for 6 weeks; type: organism-based; details: in vivo, 0.025 mg/kg, 1008 h, dose 25 µg/kg
# Mus musculus [8] = experiment: Anti-osteoporosis activity in ovariectomized C57BL/6 mouse assessed as prevention of bone loss by measuring decrease in trabecular spacing at 25 ug/kg, sc administered every day for 6 weeks by micro-CT analysis relative to control; type: functional; parameters: scale not given: the % may be the effect or the level left
# Mus musculus [9] = experiment: Anti-osteoporosis activity in ovariectomized C57BL/6 mouse assessed as prevention of bone loss by measuring increase in trabecular number at 25 ug/kg, sc administered every day for 6 weeks by micro-CT analysis relative to control; type: functional
# Mus musculus [10] = experiment: Anti-osteoporosis activity in ovariectomized C57BL/6 mouse assessed as prevention of bone loss by measuring increase in BV/TV at 25 ug/kg, sc administered every day for 6 weeks by micro-CT analysis relative to control; type: functional; details: dose 25 µg/kg
# Mus musculus [11] = experiment: Anti-osteoporosis activity in ovariectomized C57BL/6 mouse assessed as prevention of bone loss by measuring increase in trabecular thickness at 25 ug/kg, sc administered every day for 6 weeks by micro-CT analysis relative to control; type: functional
SMILES,inhibition at 5 µM (BMMC [1]) [%],"viability at 48 h, 10 µM [2] [%]",inhibition at 10 µM (BMMC [4]) [%],inhibition at 0.1 µM (BMMC [5]) [%],inhibition at 1 µM (BMMC [6]) [%],other results
C[C@H](CO)[C@H]1CC[C@H]2[C@@H]3CCC4=CC(=O)CC[C@]4(C)[C@H]3CC[C@]12C,78.6,≥ 100,100,,,IC50 (BMMC [3]): 2320 nM
CC(C)CNC(=O)[C@@H](C)[C@H]1CC[C@H]2[C@@H]3CC=C4C(C)(C)c5nnsc5C[C@]4(C)[C@H]3CC[C@]12C,,≥ 100,,72.1,100,
CCNC(=O)CC[C@@H](C)[C@H]1CC[C@H]2[C@@H]3CC=C4C(C)(C)c5nnsc5C[C@]4(C)[C@H]3CC[C@]12C,,≥ 100,,46.4,100,
CCCCCCNC(=O)[C@@H](C)[C@H]1CC[C@H]2[C@@H]3CC=C4C(C)(C)c5nnsc5C[C@]4(C)[C@H]3CC[C@]12C,,≥ 100,,50.1,87.2,
C[C@H](CO)[C@H]1CC[C@H]2[C@@H]3CC=C4C(C)(C)c5nc(N)ncc5C[C@]4(C)[C@H]3CC[C@]12C,87.3,≥ 100,100,,25.9,
COc1ccc(NC(=O)[C@@H](C)[C@H]2CC[C@H]3[C@@H]4CC=C5C(C)(C)c6nnsc6C[C@]5(C)[C@H]4CC[C@]23C)cc1,,≥ 100,,69.6,100,
CCNC(=O)CCC[C@@H](C)[C@H]1CC[C@H]2[C@@H]3CC=C4C(C)(C)c5nnsc5C[C@]4(C)[C@H]3CC[C@]12C,,≥ 100,,15.8,100,
C[C@H](C(=O)O)[C@H]1CC[C@H]2[C@@H]3CC=C4C(C)(C)c5nnsc5C[C@]4(C)[C@H]3CC[C@]12C,,≥ 100,,45.8,86.8,
CCCCNC(=O)[C@@H](C)[C@H]1CC[C@H]2[C@@H]3CC=C4C(C)(C)c5nnsc5C[C@]4(C)[C@H]3CC[C@]12C,,≥ 100,,76.3,100,
C[C@H](CO)[C@H]1CC[C@H]2[C@@H]3CC=C4C(C)(C)c5nccnc5C[C@]4(C)[C@H]3CC[C@]12C,44.9,≥ 100,67.8,,13.9,
C[C@H](C(=O)NC1CCCCC1)[C@H]1CC[C@H]2[C@@H]3CC=C4C(C)(C)c5nnsc5C[C@]4(C)[C@H]3CC[C@]12C,,≥ 100,,54,100,
CNC(=O)[C@@H](C)[C@H]1CC[C@H]2[C@@H]3CC=C4C(C)(C)c5nnsc5C[C@]4(C)[C@H]3CC[C@]12C,,≥ 100,,49.3,100,
C[C@H](CO)[C@H]1CC[C@H]2[C@@H]3CC=C4C(C)(C)c5c(cnn5-c5ccccc5)C[C@]4(C)[C@H]3CC[C@]12C,0,≥ 100,18.9,,0,
CC[C@H](C)[C@H](NC(=O)[C@H](CCC(=O)O)NC(=O)[C@H](CO)NC(=O)[C@@H](NC(=O)[C@@H](N)CO)C(C)C)C(=O)N[C@@H](CCC(N)=O)C(=O)N[C@@H](CC(C)C)C(=O)N[C@@H](CCSC)C(=O)N[C@@H](Cc1cnc[nH]1)C(=O)N[C@@H](CC(N)=O)C(=O)N[C@@H](CC(C)C)C(=O)NCC(=O)N[C@@H](CCCCN)C(=O)N[C@@H](Cc1cnc[nH]1)C(=O)N[C@@H](CC(C)C)C(=O)N[C@@H](CC(N)=O)C(=O)N[C@@H](CO)C(=O)N[C@@H](CCSC)C(=O)N[C@@H](CCC(=O)O)C(=O)N[C@@H](CCCNC(=N)N)C(=O)N[C@H](C(=O)N[C@@H](CCC(=O)O)C(=O)N[C@@H](Cc1c[nH]c2ccccc12)C(=O)N[C@@H](CC(C)C)C(=O)N[C@@H](CCCNC(=N)N)C(=O)N[C@@H](CCCCN)C(=O)N[C@@H](CCCCN)C(=O)N[C@@H](CC(C)C)C(=O)N[C@@H](CCC(N)=O)C(=O)N[C@@H](CC(=O)O)C(=O)N[C@H](C(=O)N[C@@H](Cc1cnc[nH]1)C(=O)N[C@@H](CC(N)=O)C(=O)N[C@@H](Cc1ccccc1)C(=O)O)C(C)C)C(C)C [TERIPARATIDE],,,,,,Activity [7]: Non-Toxic; Activity (Mus musculus [8]): 52.76%; Activity (Mus musculus [9]): 41.75%; Activity (Mus musculus [10]): 81.68%; Activity (Mus musculus [11]): 86.08%
CCCNC(=O)[C@@H](C)[C@H]1CC[C@H]2[C@@H]3CC=C4C(C)(C)c5nnsc5C[C@]4(C)[C@H]3CC[C@]12C,,≥ 100,,72.7,100,
C[C@H](CO)[C@H]1CC[C@H]2[C@@H]3CC=C4C(C)(C)c5nc6ccccc6cc5C[C@]4(C)[C@H]3CC[C@]12C,47.2,≥ 100,93.9,,37.8,
C[C@H](C(=O)Nc1ccc(Cl)cc1)[C@H]1CC[C@H]2[C@@H]3CC=C4C(C)(C)c5nnsc5C[C@]4(C)[C@H]3CC[C@]12C,,≥ 100,,45.2,81,
CCNC(=O)C[C@@H](C)[C@H]1CC[C@H]2[C@@H]3CC=C4C(C)(C)c5nnsc5C[C@]4(C)[C@H]3CC[C@]12C,,≥ 100,,21.9,99.5,
Cc1nc2c(o1)C(C)(C)C1=CC[C@H]3[C@@H]4CC[C@H]([C@H](C)CO)[C@@]4(C)CC[C@@H]3[C@@]1(C)C2,73.8,≥ 100,89.8,,43,
C[C@H](C(=O)N1CCOCC1)[C@H]1CC[C@H]2[C@@H]3CC=C4C(C)(C)c5nnsc5C[C@]4(C)[C@H]3CC[C@]12C,,≥ 100,,53.5,91.9,
C[C@H](CO)[C@H]1CC[C@H]2[C@@H]3CC=C4C(C)(C)c5nonc5C[C@]4(C)[C@H]3CC[C@]12C,90.5,≥ 100,100,,42.4,
C[C@H](C(=O)Nc1ccc(Br)cc1)[C@H]1CC[C@H]2[C@@H]3CC=C4C(C)(C)c5nnsc5C[C@]4(C)[C@H]3CC[C@]12C,,≥ 100,,0,65.1,
C[C@H](CO)[C@H]1CC[C@H]2[C@@H]3CC=C4C(C)(C)c5[nH]ncc5C[C@]4(C)[C@H]3CC[C@]12C,87,≥ 100,100,,34.6,
C=CCNC(=O)[C@@H](C)[C@H]1CC[C@H]2[C@@H]3CC=C4C(C)(C)c5nnsc5C[C@]4(C)[C@H]3CC[C@]12C,,≥ 100,,61.1,98.3,
CCNC(=O)CCCC[C@@H](C)[C@H]1CC[C@H]2[C@@H]3CC=C4C(C)(C)c5nnsc5C[C@]4(C)[C@H]3CC[C@]12C,,≥ 100,,7.4,98.8,
C[C@H](C(=O)Nc1ccc(F)cc1)[C@H]1CC[C@H]2[C@@H]3CC=C4C(C)(C)c5nnsc5C[C@]4(C)[C@H]3CC[C@]12C,,≥ 100,,47.5,91.9,
C[C@H](CO)[C@H]1CC[C@H]2[C@@H]3CC=C4C(C)(C)c5nnsc5C[C@]4(C)[C@H]3CC[C@]12C,100,≥ 100,100,,75.8,
C[C@H](C(=O)Nc1nccs1)[C@H]1CC[C@H]2[C@@H]3CC=C4C(C)(C)c5nnsc5C[C@]4(C)[C@H]3CC[C@]12C,,≥ 100,,19.2,85.9,
C[C@H](C(=O)Nc1ccncc1)[C@H]1CC[C@H]2[C@@H]3CC=C4C(C)(C)c5nnsc5C[C@]4(C)[C@H]3CC[C@]12C,,≥ 100,,30.2,85.5,
